Laboratory results as given in patent US20120202876A1, “METHODS OF TREATING DISEASES WITH PROANTHOCYANIDIN OLIGOMERS SUCH AS CROFELEMER” (NAPO PHARMACEUTICALS, INC., priority 2009, published 2012).

Molecular target: T1, human CFTR (Homo sapiens, UniProt P13569)
T1 construct: expressed in transfected cells
Assay: Apical membrane Cl− current in CFTR-expressing FRT cells
Format: cell-based
Conditions: for inhibition of CFTR after crofelemer pre-treatment: 50 μM crofelemer added first; for IC50 in absence versus presence of crofelemer: 50 μM crofelemer pre-added
Method: CFTR Cl^− current was measured in CFTR-expressing FRT cells in which the basolateral membrane was permeabilized by amphotericin B and a transepithelial Cl^− gradient was applied. Under these conditions, the measured current provides a direct quantitative measure of CFTR Cl^− conductance.
Measurements were done to investigate whether the Crofelemer inhibition potency depended on the CFTR activation mechanism. […] The reversibility of crofelemer inhibition of CFTR was investigated, since washout during secretory diarrhea is a concern in the use of a non-absorbable antisecretory agent. […] Following extensive washing, residual CFTR inhibition was determined from the current after re-stimulation by CPT-cAMP.
Comparisons of CFTR inhibition in the absence and presence of pre-added crofelemer tested the possibility that the site of action of crofelemer on CFTR might overlap with that of the small-molecule thiazolidinone and glycine hydrazide CFTR inhibitors.
FRT cells expressing human TMEM16A (cDNA provided by Dr. Luis Galietta, Gaslini Institute, Genoa, Italy) were generated similarly. FRT cells were cultured in F-12 Modified Coon's Medium (Sigma) supplemented with 10% fetal bovine serum (Hyclone), 2 mM glutamine, 100 units/ml penicillin, 100 μg/ml streptomycin, 350 μg/ml hygromycin and 500 μg/ml geneticin. […] T84 cells were cultured in DMEM/Ham's F-12 (1:1) medium containing 10% FBS, 100 units/ml penicillin and 100 μg/ml streptomycin.
FRT cells (stably expressing CFTR or TMEM16A) were cultured on Snapwell filters until confluence (transepithelial resistance >500 ohm.cm). Short-circuit current was measured in Ussing chambers (Vertical diffusion chamber; Costar) with Ringer's solution bathing the basolateral surface and half-Ringer's bathing the apical surface. Ringer's solution contained: 130 mM NaCl, 2.7 mM KCl, 1.5 mM KH2PO4, 1 mM CaCl2, 0.5 mM MgCl2, 10 mM Na-HEPES, 10 mM glucose, pH 7.3. Half-Ringer's solution was the same, except that 65 mM NaCl was replaced with Na gluconate, and CaCl2 was increased to 2 mM. […] Chambers were bubbled continuously with air. For T84 cells and bronchial epithelial cells, cells were bathed in symmetrical HCO3—buffered solution containing (in mM): 120 NaCl, 5 KCl, 1 MgCl2, 1 CaCl2, 10 D-glucose, 5 HEPES, and 25 NaHCO3 (pH 7.4), and aerated with 5% CO2 at 37° C. For the measurement of apical K+ conductance in T84 cells, NaHCO3 and NaCl were replaced with Na gluconate, and Na gluconate in basolateral solution was replaced with K gluconate and bubbled with air. The basolateral membrane was permeabilized with 20 μM amphotericin B. Short-circuit current was measured using a DVC-1000 voltage-clamp apparatus (World Precision Instruments).

T1 sequence (P13569 whole entry): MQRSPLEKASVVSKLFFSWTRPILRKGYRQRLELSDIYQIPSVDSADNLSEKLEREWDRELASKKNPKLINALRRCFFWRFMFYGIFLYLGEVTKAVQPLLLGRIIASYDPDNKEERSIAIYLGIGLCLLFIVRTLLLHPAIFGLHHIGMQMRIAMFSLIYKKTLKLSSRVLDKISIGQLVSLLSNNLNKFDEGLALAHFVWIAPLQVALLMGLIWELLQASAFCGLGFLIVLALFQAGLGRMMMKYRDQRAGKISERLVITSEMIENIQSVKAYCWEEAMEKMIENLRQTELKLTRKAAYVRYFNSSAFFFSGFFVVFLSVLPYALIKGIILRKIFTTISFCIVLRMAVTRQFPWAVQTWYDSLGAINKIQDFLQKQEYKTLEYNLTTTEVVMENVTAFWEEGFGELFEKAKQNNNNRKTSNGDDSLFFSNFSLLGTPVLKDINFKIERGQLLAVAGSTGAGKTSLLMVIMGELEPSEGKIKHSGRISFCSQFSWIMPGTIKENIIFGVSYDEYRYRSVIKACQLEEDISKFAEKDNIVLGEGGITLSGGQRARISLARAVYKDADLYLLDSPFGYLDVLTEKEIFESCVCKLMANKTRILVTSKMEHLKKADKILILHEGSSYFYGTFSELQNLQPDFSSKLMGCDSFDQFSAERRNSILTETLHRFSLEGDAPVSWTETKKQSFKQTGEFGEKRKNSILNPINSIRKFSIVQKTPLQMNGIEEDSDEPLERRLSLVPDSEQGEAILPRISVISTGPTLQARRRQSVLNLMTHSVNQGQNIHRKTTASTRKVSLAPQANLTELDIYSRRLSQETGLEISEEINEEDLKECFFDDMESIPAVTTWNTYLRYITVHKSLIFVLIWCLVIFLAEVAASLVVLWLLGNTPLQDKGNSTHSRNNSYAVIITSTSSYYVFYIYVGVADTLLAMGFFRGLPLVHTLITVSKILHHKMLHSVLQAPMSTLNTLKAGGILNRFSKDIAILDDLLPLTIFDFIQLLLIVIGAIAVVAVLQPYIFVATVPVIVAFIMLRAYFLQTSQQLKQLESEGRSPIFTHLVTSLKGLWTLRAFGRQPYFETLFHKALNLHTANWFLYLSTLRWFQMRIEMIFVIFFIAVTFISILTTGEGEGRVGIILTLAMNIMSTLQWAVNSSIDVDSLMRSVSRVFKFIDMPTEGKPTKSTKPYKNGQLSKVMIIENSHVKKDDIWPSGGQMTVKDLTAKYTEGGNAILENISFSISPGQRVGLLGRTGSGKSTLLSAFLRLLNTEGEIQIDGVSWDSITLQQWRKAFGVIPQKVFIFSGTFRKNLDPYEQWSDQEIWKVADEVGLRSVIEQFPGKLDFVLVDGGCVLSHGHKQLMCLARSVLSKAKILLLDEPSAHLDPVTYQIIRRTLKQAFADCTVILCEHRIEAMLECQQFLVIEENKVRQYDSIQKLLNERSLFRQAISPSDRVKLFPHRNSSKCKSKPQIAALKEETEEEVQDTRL

Molecule | inhibition of CFTR after crofelemer pre-treatment | IC50 in absence versus presence of crofelemer | IC50 (CFTR activated by CPT-cAMP, basolateral membrane permeabilized, Cl− gradient, inhibitor in apical solution, read-out: apparent IC50 for inhibition of CFTR Cl− current)
O=C(CNc1ccc2ccccc2c1)N/N=C/c1cc(Br)c(O)c(Br)c1O [GlyH-101] | ~100% | similar | ~8 µM
CFTRinh-172 | ~100% | similar | –
